# Assays:
# [1] = system: WEHI-S fibrosarcoma cells; test: TNF-induced caspase-independent cell death of WEHI-S fibrosarcoma cells; format: cell-based; details: 50-10 μM
# MCF-casp3 cells = test: TNF-induced cell death of MCF-casp3 cells
# Description: (§1) The ability of compound f to inhibit cell death was examined in MCF-neo and MCF-casp3 cells. […] To analyse the mechanism of the action of compound f in alive cells, MCF-casp3 cells were treated with TNF (5 ng/ml) in the presence of 50 μM compound f and the activity of caspase-3-like proteases was measured by a DEVDase enzyme assay.
# [2] = system: caspase-3-like proteases in MCF-casp3 cells; test: TNF-induced DEVDase activity in MCF-casp3 cells; format: cell-based; details: TNF 5 ng/ml, 50 μM
# Description: as §1
# recombinant caspase-3 = molecular target: T1, recombinant caspase-3 (Homo sapiens, UniProt P42574); test: Recombinant caspase-3 activity, cleavage of DEVD-AFC; format: biochemical; details: 25 to 100 μM; DEVD-AFC substrate
# T1 sequence (P42574 29-175 limits assumed): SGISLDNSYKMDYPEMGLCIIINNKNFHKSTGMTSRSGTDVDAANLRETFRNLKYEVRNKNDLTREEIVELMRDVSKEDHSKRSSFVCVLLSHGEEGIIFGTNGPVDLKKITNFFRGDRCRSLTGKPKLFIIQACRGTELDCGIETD
# T1 sequence (P42574 176-277 limits assumed): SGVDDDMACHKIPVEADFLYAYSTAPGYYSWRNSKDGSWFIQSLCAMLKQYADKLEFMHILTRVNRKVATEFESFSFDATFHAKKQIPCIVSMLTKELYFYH
# Description: To test if compounds a, f, and g were specific caspase inhibitors, recombinant caspase-3 and caspase-9 were incubated with the three compounds and the enzymatic activities of caspases were monitored by analysing the cleavage of the caspase-3 substrate DEVD-AFC or the caspase-9 substrate LEHD-AFC, respectively.
# [3] = molecular target: T2, apoptosome complex (Apaf-1 and caspase-9) (Homo sapiens, UniProt O14727+P55211); test: Apoptosome formation: co-immunoprecipitation of Apaf-1 with caspase-9 in cell extract; format: binding; details: 100 μM
# T2 construct: Caspase-9 antibody precipitated practically all caspase-9 present in the cell extract; endogenous in cells; host or cells: cell extract
# T2 sequence (O14727 1-1248): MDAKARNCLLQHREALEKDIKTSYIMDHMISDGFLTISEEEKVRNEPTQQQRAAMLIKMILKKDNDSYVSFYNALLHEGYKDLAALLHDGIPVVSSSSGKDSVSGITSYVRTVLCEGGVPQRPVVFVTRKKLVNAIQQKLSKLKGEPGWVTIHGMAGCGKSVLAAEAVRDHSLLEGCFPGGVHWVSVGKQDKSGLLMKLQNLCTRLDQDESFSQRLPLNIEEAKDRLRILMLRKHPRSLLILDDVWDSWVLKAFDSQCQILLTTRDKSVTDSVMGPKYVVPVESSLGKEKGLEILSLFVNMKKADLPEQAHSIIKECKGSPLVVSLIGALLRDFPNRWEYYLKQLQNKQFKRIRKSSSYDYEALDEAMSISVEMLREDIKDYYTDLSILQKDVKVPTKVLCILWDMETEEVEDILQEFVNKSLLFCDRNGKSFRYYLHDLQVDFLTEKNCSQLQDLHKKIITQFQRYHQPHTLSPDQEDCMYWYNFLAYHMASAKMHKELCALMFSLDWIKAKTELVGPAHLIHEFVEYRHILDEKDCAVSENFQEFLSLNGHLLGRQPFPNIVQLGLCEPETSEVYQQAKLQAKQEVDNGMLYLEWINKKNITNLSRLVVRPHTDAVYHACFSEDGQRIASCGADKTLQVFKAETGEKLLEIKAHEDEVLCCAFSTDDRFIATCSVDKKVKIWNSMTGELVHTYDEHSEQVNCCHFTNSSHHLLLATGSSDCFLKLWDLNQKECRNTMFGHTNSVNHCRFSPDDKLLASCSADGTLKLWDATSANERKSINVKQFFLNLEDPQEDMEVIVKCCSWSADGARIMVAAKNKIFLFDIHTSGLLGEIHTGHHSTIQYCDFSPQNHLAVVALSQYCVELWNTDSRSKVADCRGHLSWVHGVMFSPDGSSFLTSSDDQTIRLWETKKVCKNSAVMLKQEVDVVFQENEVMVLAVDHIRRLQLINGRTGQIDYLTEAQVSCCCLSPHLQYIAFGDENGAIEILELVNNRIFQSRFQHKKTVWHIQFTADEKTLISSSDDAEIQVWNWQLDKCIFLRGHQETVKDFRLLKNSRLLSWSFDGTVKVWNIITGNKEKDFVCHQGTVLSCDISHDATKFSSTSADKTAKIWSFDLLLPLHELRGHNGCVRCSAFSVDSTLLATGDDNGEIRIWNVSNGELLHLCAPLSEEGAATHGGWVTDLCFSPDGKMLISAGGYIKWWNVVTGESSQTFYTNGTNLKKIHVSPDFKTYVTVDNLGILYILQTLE
# T2 sequence (P55211 1-416): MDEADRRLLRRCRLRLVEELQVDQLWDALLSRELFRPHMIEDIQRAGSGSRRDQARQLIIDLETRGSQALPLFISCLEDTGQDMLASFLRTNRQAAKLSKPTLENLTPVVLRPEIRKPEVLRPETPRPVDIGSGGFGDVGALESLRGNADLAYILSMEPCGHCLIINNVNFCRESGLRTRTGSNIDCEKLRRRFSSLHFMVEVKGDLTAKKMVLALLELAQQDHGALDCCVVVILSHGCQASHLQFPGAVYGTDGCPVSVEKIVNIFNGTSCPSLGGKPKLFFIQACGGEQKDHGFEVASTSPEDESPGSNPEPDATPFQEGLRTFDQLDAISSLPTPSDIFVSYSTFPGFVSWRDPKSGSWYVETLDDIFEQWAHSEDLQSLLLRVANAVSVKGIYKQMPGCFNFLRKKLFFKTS
# Description: Next, it was tested whether compound f interferes with the formation of apoptosome complex in response to Cc/dATP. Cell extracts were incubated with Cc/dATP in the presence or absence of 100 μM compound f or 1 μM zVAD-fmk for 1 hour prior to the immunoprecipitation (IP) of caspase-9. […] Hsp90, which has been proposed to associate with Apaf-1 and prevent oligomerization and caspase-9 recruitment, was not co-immunoprecipitated with caspase-9.
# [4] = system: caspase-9, caspase-3 and caspase-7 processing; DFF45/ICAD and PARP cleavage; test: Processing of caspases and caspase substrates in Cc/dATP-stimulated cell extract, Western blotting; format: biochemical
# Description: Activation of endogene caspases is induced by addition of 1 mM dATP and 1 μM horse heart cytochrome c to cytosolic extract (protein concentration; 5-10 mg/ml) in the presence of DEVD-AFC and the compound (final concentration 100 μM). Activated DEVD'ases (AFC release) is measured by fluorometry in 96-well plates at 37° C. After end measurements 2× LSB-Mechaptoethanol are added to the samples for assessment of caspase processing by immunoblot analysis.
# Next, the effect of the compounds on the processing of caspases and caspase substrates in the in vitro model system was analysed by Western blotting. Caspase-9, caspase-3 and caspase-7 were processed into p35, p17, and p20 active fragments, respectively, in response to Cc/dATP. Accordingly, Cc/dATP induced a threefold induction in DEVDase activity and cleavage of the caspase-3 substrates DFF45/ICAD and PARP.
smiles,measurement,setting,value
"O=C(Nc1cccc(C(F)(F)F)c1)Nc1cc(Cl)ccc1C(=O)O [Compound f, [N-(2-Carboxy-5-chlorophenyl)-N′-(3-trifluoromethylphenyl)]urea]",inhibition of the TNF-induced cell death,[1],No inhibition
same,cell death induced by TNF,"MCF-casp3 cells; 1 ng/ml TNF, 50 μM",completely blocked
same,protection against TNF-induced cell death,"MCF-casp3 cells; 5 ng/ml TNF, 50 μM",protection was still significant
same,inhibition of TNF-induced cell death,MCF-casp3 cells; 10 ng/ml TNF,no inhibition
same,TNF-induced DEVDase activity,[2],significantly reduced
same,inhibition of recombinant caspase-3 activity,recombinant caspase-3,failed to inhibit
same,ability of the caspase-9 antibody to precipitate caspase-9,[3],no effect
same,co-immunoprecipitation of Apaf-1 and caspase-9,[3]; 1 hour with Cc/dATP prior to IP of caspase-9,significantly inhibited
same,processing of caspase-9,"[4]; 10 μM, compared with the vehicle control",slightly more procaspase-9 remained unprocessed
same,processing of caspase-9,[4]; 100 μM,almost completely inhibited
same,"inhibition of caspase-9, -3 and -7 processing and DFF45/ICAD and PARP cleavage","[4]; cell extracts stimulated with Cc/dATP, Western blot, dose dependence",dose-dependent inhibition

# — patent US20040077634A1, “Treatment of diseases characterized by excessive or insufficient cell death” (priority 2001, published 2004)
